These results are taken from US9409905B2, “Antibacterial compounds and methods for use” (PTC THERAPEUTICS, INC., priority 2011, dated 2016).

Structures are written as SMILES. In brackets after ≈: the same amount, converted by molar mass. Some results are limits rather than exact numbers.

Assay [1] concerns Escherichia coli (E. coli) BAS849. The experiment in a line: Antibacterial activity, microbroth dilution MIC (Table 1). The assay is classed as cell-based. To be noted: microbroth dilution, super sensitive Gram-negative E. coli BAS849, read-out: MIC, BAS849. In a few lines:
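Lowest concentration stopping macroscopically visible growth under test conditions, by broth microdilution, defines the MIC (μg/mL).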

Assay [2] relates to Staphylococcus aureus (S. aureus) 29213. Described as above. Format: cell-based. The note with it: microbroth dilution, Gram-positive S. aureus 29213, read-out: MIC, 29213. The essentials:
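In a microbroth dilution test, the minimum inhibitory concentration was defined as the lowest compound level preventing growth seen by eye, and was given in μg/mL.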

Assay [3] concerns K. pneumoniae MXX1232. The experiment in a line: Antibacterial activity, MIC, resistant strain (Table 4). Format: cell-based. The note with it: Klebsiella pneumoniae, MXX1232; resistant K. pneumoniae MMX1232, multi-drug resistant clinical isolate; read-out: MIC, MMX1232. The essentials: (§1)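 Activity was measured by microbroth dilution. The MIC, in μg/mL, is the lowest drug concentration that prevents macroscopically visible growth under the test conditions. The resistant strains are multi-drug resistant clinical isolates.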

Assay [4] deals with A. baumannii MXX2240. The description is as above. Format: cell-based. The note with it: Acinetobacter baumannii, MXX2240; resistant A. baumannii MMX2240, multi-drug resistant clinical isolate; read-out: MIC, MMX2240. In a few lines:
as §1

Assay [5] has as its system Pseudomonas aeruginosa (P. aeruginosa) 27853. The assay can be described thus: Antibacterial activity, MIC (Table 5). Format: cell-based. The note with it: P. aeruginosa 27853, read-out: MIC, 27853. In a few lines: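 MIC in μg/mL from broth microdilution; endpoint is the lowest drug level giving no visible growth.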
The subject of assay [6] is E. coli 25922. The experiment in a line: Antibacterial activity, microbroth dilution MIC (Table 1). The assay is classed as cell-based, Escherichia coli. The note with it: Escherichia coli; microbroth dilution; control Gram-negative E. coli 25922 strain; read-out: MIC, 25922. The essentials:
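Values are MICs (μg/mL): the smallest drug amount at which macroscopically visible bacterial growth is absent under assay conditions, from a microdilution method in broth.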
In general terms: Dilution methods test growth across graded concentrations, often in twofold steps.

Assay [7] relates to Neisseria meningitidis (N. meningitidis) 13090. The assay can be described thus: Antibacterial activity, MIC (Table 8). The assay is classed as cell-based. In a few lines: (§2)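 Broth microdilution; MIC (μg/mL) = lowest concentration with no macroscopically visible growth.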
Assay [8] concerns E. coli LZ3111. The experiment in a line: Antibacterial activity, MIC, quinolone resistant strain (Table 2). Format: cell-based. The note with it: Escherichia coli, LZ3111, read-out: MIC LZ3111. The essentials:
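Lowest concentration giving no macroscopically visible growth was taken as the MIC (μg/mL) after microbroth dilution testing.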

Assay [9] has as its system Moraxella catarrhalis (M. catarrhalis) 25238. The assay can be described thus: Antibacterial activity, MIC (Table 7). The assay is classed as cell-based. The essentials:
as §2

Assay [10] concerns Haemophilus influenzae (H. influenzae) 49247. The experiment in a line: Antibacterial activity, MIC (Table 6). Format: cell-based. In a few lines: as §2
Assay [11] relates to Klebsiella pneumoniae (K. pneumoniae) 35657. The assay can be described thus: Antibacterial activity, MIC (Table 4). The assay is classed as cell-based. The note with it: K. pneumoniae 35657, read-out: MIC, 35657. The essentials: as §1
In assay [12] the test system is Acinetobacter baumannii (A. baumannii) BAA747. The experiment in a line: Antibacterial activity, MIC (Table 4). The assay is classed as cell-based. To be noted: A. baumannii BAA747, read-out: MIC, BAA747. The essentials: as §1
In assay [13] the test system is E. coli ELZ4251. The experiment in a line: Antibacterial activity, MIC, multi-drug resistant clinical isolate (Table 3). The assay is classed as cell-based. The note with it: Escherichia coli. The essentials: (§3)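 Growth inhibition is measured by microbroth dilution, and the minimum inhibitory concentration in μg/mL corresponds to the lowest drug level that prevents visible bacterial growth.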

The test system of assay [14] is E. coli ELZ4000. The description is as above. The assay is classed as cell-based. The note with it: Escherichia coli, ELZ4000, read-out: MIC ELZ4000. In a few lines:
as §3

For `CNCc1cc2cc(-c3[nH]c(=O)c(C(=O)O)c(O)c3C)ccc2n1C` [Cpd 317, 4-hydroxy-5-methyl-6-(1-methyl-2-((methylamino)methyl)-1H-indol-5-yl)-2-oxo-1,2-dihydropyridine-3-carboxylic acid], the MIC in assay [1] was < 1 µg/mL; in assay [2], 12.5 to 150 µg/mL (≈ 36.6 to 439 µM); in assay [3] it was 3.5 to 12.5 µg/mL (≈ 10.3 to 36.6 µM); in assay [4] it was 1 to 3.5 µg/mL (≈ 2.93 to 10.3 µM); in assay [5] it was 12.5 to 150 µg/mL (≈ 36.6 to 439 µM); in assay [6], 1 to 3.5 µg/mL (≈ 2.93 to 10.3 µM). Besides, the MIC in [7] was < 1 µg/mL; in assay [8], < 1 µg/mL; in assay [9], 3.5 to 12.5 µg/mL (≈ 10.3 to 36.6 µM); in assay [10], 1 to 3.5 µg/mL (≈ 2.93 to 10.3 µM); in assay [11], 1 to 3.5 µg/mL (≈ 2.93 to 10.3 µM); in [12] it was 3.5 to 12.5 µg/mL (≈ 10.3 to 36.6 µM). The figures for the MIC in assay [13] and in assay [14] were < 1 µg/mL and 1 to 3.5 µg/mL (≈ 2.93 to 10.3 µM), respectively.
